Results published in patent US6399052B2, “Treating hair by targeting enzymes” (Unilever Home & Personal Care USA division of Conopco, Inc., priority 1999, dated 2002).
Peptide text beside a SMILES is read from it. * marks the point of attachment. AMC = Cc1cc(=O)oc2cc(N*)ccc12; Cbz = O=C(OCc1ccccc1)*

Key:
[1] = system: cathepsin L-type protease activity of hair extract; experiment: peptidyl-AMC protease assay of hair fibre extract; type: biochemical, human
Experimental: Hair fibres taken from approx. 5 mm from the scalps of male and female individuals, aged 25-35, were cleaned, dried and then ground in liquid N2, and homogenised with an Ystral Homogeniser (high shear) using a 10 mm probe in extraction buffer (50 mM Citrate-Phosphate pH6.0, 2M NaCl).
Triton X-100 (2% stock) was added to the homogenate to a final concentration of 0.1%, and intermittently mixed by gentle agitation and incubated on ice for 1 hour. Large hair debris was allowed to precipitate and the solution was centrifuged at 13000 rpm for 5 minutes to remove insoluble protein. The resulting supernatant, containing soluble protein was dialysed (MWCO ca […]) in 50 mM citrate-phosphate, pH 6.0. Glycerol was added to the dialysed extract to 20% (v/v). The extracts were then aliquotted and stored at −20° C. until required.
With the above information, it was decided to investigate the protease profile of the hair extracts with the use of more specific peptide substrates (peptidyl-7-amido-4-methylcoumarin (peptidyl-AMC) substrates). Seven peptidyl-AMC substrates were used to study the protease types within the hair extract. These were selected on the basis of their specificity for individual protease species.
Stock solutions of each peptidyl-AMC substrate (Bachem) were prepared at 10 mM in DMSO and stored in aliquots at 4° C. Each aliquot was diluted to 1 mM with MQ water, prior to use. All assays (100 μl final volume) were routinely conducted in triplicate. For the measurement of cysteine protease activity, the standard assay contained 50 mM citrate-phosphate buffer pH 6.0, 100 μM peptidyl-AMC, 5 mM cysteine and approximately 1 μg protein extract. The assays were initiated by the addition of substrate and incubated at 30° C. for 2 hours. The reactions were terminated with the addition of 1 ml ‘stop’ solution (100 mM sodium monochloroacetate, 30 mM sodium acetate, 70 mM acetic acid).
The hydrolysed AMC was measured with the use of a fluorimeter set to 370 nm (excitation) and 460 nm (emission). Protease activity was quantified using standard concentrations of AMC. The fluorescence of each substrate and the hair extract were also measured and these values subtracted from the final fluorescence of each reaction, to give the value of fluorescence increase due to AMC liberation.

[2] = molecular target: T1, human steroid sulphatase (Homo sapiens, UniProt P08842); details: substrate cholesterol-3-sulphate; cited from earlier work
T1 sequence (P08842 22-583): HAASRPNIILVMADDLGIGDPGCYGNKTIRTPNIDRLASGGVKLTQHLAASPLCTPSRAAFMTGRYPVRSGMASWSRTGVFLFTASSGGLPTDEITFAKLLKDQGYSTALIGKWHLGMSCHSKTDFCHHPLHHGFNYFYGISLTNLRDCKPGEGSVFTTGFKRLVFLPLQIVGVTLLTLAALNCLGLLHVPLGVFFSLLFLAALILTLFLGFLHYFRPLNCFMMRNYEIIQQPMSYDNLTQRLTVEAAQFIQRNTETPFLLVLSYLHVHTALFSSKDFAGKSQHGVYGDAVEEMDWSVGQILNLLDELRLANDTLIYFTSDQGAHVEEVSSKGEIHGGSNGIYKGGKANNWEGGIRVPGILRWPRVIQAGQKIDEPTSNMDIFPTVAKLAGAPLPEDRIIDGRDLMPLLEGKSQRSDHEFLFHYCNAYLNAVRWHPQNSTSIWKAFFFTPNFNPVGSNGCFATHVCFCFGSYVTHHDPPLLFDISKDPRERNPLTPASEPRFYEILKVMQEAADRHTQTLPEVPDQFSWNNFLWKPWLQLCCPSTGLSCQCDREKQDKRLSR

[3] = hair fibre extract, substrate z-Phe-Arg-AMC

CC(C)C[C@H](NC(=O)[C@H]1O[C@@H]1C(=O)O)C(=O)NCCCCN=C(N)N (relative stereo) [E-6464, L-trans-epoxysuccinyl-leucylamido(4-guanido)butane]
inhibition of the z-Phe-Arg-AMC hydrolysing activity of hair extract [1, 3]: potently inhibited

CC(C)CCC[C@@H](C)[C@H]1CC[C@H]2[C@@H]3CC=C4C[C@@H](OS(=O)(=O)O)CC[C@]4(C)[C@H]3CC[C@]12C [cholesterol-3-sulphate]
Km [2]: 5 µM

N[C@@H](CS)C(=O)O [cysteine]
stimulation of the z-Phe-Arg-AMC hydrolysing activity of hair extract [1, 3]: stimulated

Cc1cc(=O)oc2cc(NC(=O)C(CCCN=C(N)N)NC(=O)C(Cc3ccccc3)NC(=O)OCc3ccccc3)ccc12 (stereo not drawn) [z-Phe-Arg-AMC] (Cbz-Phe-Arg-{AMC}; configuration not given here)
apparent Vmax of cathepsin L-type activity ([1]; hair extract, 1 mg of extract from approx. 9 g hair): 1.66 nmoles AMC produced per minute per mg hair extract | hydrolysis by the hair extracts compared with the other peptidyl-AMC substrates ([1]; seven peptidyl-AMC substrates, 100 μM, pH 6.0, 30° C., 2 hours): most hydrolysed
